Assay results published in patent publication US10980754B2, “Anti-fungal compounds” (SAINT LOUIS UNIVERSITY, priority 2016, dated 2021).
In brackets after ≈: the same amount, converted by molar mass. Entries after “also recorded” stand apart in the source; their conditions may differ.

What was measured:
[1] = test system: Wild-type KN99α; assay: Screening of 1-Hydroxy-1,8-naphthyridin-2(1H)-one (HNO) compounds for growth inhibition; format: cell-based, C. neoformans; conditions: Cryptococcus neoformans; growth inhibited >80%
Protocol: FIG. 1. Results from screening 8 napthyridinone derivatives. Wild-type KN99α at a starting density of 0.0005 was treated with the compounds at 4 μM, 15 μM, and 60 μM in nutrient-limiting media (YNB, pH 7)+1% DMSO at 35° C. for 48 hours. Bars represent the average cell density of at least three replicates as percent of untreated cells.
Eight compounds in the 1-Hydroxy-1,8-naphthyridin-2(1H)-one (HNO) chemical family were also tested. Three compounds, #149, #153 and #154, inhibited growth of C. neoformans >80% with MICs of ˜10 μM, ˜4 μM and ˜20 μM respectively.

[2] = test system: C. neoformans var grubii, KN99; assay: Inhibition of C. neoformans growth, limiting dilution assay (MIC); format: cell-based; conditions: for MIC80: KN99α, minimal concentration inhibiting 80% of growth relative to vehicle; for activity against C. neoformans (in words): MIC assay
Protocol: Strains and media. All inhibition assays were performed with C. neoformans var grubii, KN99 (serotype A, MATα; kindly provided by Jennifer Lodge). Two clinical strains of C. neoformans var grubii, serotype A, were kindly provided by Tamara Doering and Andre Spec. […] Each assay was done in triplicate and all values are the average of two or more independent assays. The data are presented as the average cell density as a percent of DMSO-only treated cells. […] However, these conditions are unlike conditions encountered by C. neoformans in mammalian infections, where nutrients are limited, and the pH and temperature are higher than in YPD media. The cryptococcal stress response to low glucose and high pH and temperature may alter its susceptibility to the inhibitors. It is also possible that the enzymes targeted by the inhibitors may render the cell temperature sensitive when inhibited. To better mimic growth in mammals, growth was tested without shaking in nutrient-limited media at 35° C. […] However, as the nutrient-limited media and higher temperature is more similar to mammalian cell growth conditions, these conditions were used for all further assays. […] All values were measured at least two times in independent experiments and the average MIC is reported.

[3] = Cytotoxicity in hepatoma cells (MTS); conditions: human, HepDES19 cells
Protocol: (§1) HepDES19 cells (1.0×10^4 cells per well) were seeded in 96-well plates and incubated in DMEM with 10% fetal bovine serum (FBS) plus 1% penicillin and streptomycin, 1% nonessential amino acids, and 1% glutamine. The compounds were diluted in the medium at concentrations ranging from 0.78 to 100 μM plus 1% DMSO and added to the cells 48 hours after plating, with each concentration tested in triplicate. Cells were incubated with the compound for 72 hours and cytotoxicity was measured using a mitochondrial metabolic assay with MTS (Promega). The data were transformed to log[inhibitor] and fit to a 4-variable slope curve using GraphPad Prism (v6, www.graphpad.com).
(§2) Three days later, the MTS reagent was added for 90 minutes prior to terminating the incubation period and reading the OD480.

[4] = test system: HepDES19 cells; assay: Cytotoxicity in hepatoma cells (MTS); conditions: 72 hours, MTS
Protocol: as §1, §2

[5] = Cryptococcus neoformans, YNB-02+1% DMSO, 35° C., 48 hours
[6] = CC50, HepDES19 cells, 72 hours, MTS
[7] = YNB-02+1% DMSO, 35° C., 48 hours
[8] = Cryptococcus neoformans, Table 3, similar methods to Table 2
[9] = CC50, Table 3, similar methods to Table 2

| Compound | MIC80 [2, 5] [µM] | CC50 at 72 h [3, 6] [µM] | further results |
| --- | --- | --- | --- |
| O=c1cc(Cc2ccc(Br)cc2)c2cccnc2n1O [Compound 149] |  |  | MIC [1]: ~10 µM (≈ 3.31 µg/mL) |
| COC(=O)c1cc(O)c(=O)c(OC)cc1C [Compound 273] | 50 (≈ 11.2 µg/mL) | 100 | activity against C. neoformans (in words) [2]: no activity |
| O=c1c(O)ccc(-c2ccc(-c3ccccc3)cc2)cc1O [Compound 264, 4-([1,1′-biphenyl]-4-yl)-2,7-dihydroxycyclohepta-2,4,6-trien-1-one] | 35 (≈ 10.2 µg/mL) | 28 |  |
| CC(C)=CCc1ccc(=O)c(O)cc1C(C)C [Compound 49, Nootkatin] | 18 (≈ 4.18 µg/mL) | 18.5 |  |
| COc1ccc(C(=O)c2cc(O)c(=O)c(O)cc2C)cc1 [Compound 312, 4-(4-methoxybenzoyl)-2,7-dihydroxy-5-methylcyclohepta-2,4,6-trien-1-one] | 18 (≈ 5.15 µg/mL) | 18 |  |
| Cc1cc(O)c(=O)c(O)cc1-c1ccc(Br)cc1 [Compound 114] | 11 (≈ 3.38 µg/mL) | 18.6 |  |
| Cc1cc(O)c(=O)c(O)cc1C(=O)c1ccc2ccccc2c1 [Compound 315, 4-(2-naphthoyl)-2,7-dihydroxy-5-methylcyclohepta-2,4,6-trien-1-one] | 24 (≈ 7.35 µg/mL) | 17 |  |
| COC(=O)c1c(CCl)cc(O)c(=O)c(O)c1C(=O)OC [Compound 107] | 50 (≈ 15.1 µg/mL) | 85.5 |  |
| COC(=O)c1c2c(cc(O)c(=O)c1O)COC2=O [Compound 280, Methyl 5,7-dihydroxy-3,6-dioxo-3,6-dihydro-1H-cyclohepta[c]furan-4-carboxylate] | 50 (≈ 12.6 µg/mL) | 66 |  |
| O=c1cccccc1Cl [Compound 57, 2-chlorotropone] |  |  | MIC80 [2, 7]: 50 µM (≈ 7.03 µg/mL) |
| O=c1cccccc1O [Compound 53, Tropolone] | 24 (≈ 2.93 µg/mL) | 100 | MIC [2, 5]: 24 µM (≈ 2.93 µg/mL) |
| COCc1cc(O)c(=O)c(O)c(C(=O)OC)c1C(=O)OC [Compound 108] | 50 (≈ 14.9 µg/mL) | 90.5 |  |
| Cc1cc(O)c(=O)c(O)cc1C(=O)C(C)C [Compound 143] | 50 (≈ 11.1 µg/mL) | > 100 | MIC [2, 5]: ≥ 50 µM |
| C=C(C)C1CCc2c(c(C)cc(O)c(=O)c2O)C1 (stereo not shown) [Compound 56, Manicol] | 50 (≈ 12.3 µg/mL) | 27 |  |
| Cc1cc(O)c(=O)c(O)cc1-c1cccc2ccccc12 [Compound 146] | 20 (≈ 5.57 µg/mL) | 20 |  |
| Cc1cc(O)c(=O)c(O)cc1C(=O)O [Compound 319, 4,6-dihydroxy-2-methyl-5-oxocyclohepta-1,3,6-triene-1-carboxylic Acid] | 50 (≈ 9.81 µg/mL) | > 100 | MIC [2, 5]: ≥ 50 µM |
| Cc1ccccc1C(=O)Oc1cccccc1=O [Compound 281] | 50 (≈ 12 µg/mL) | 100 |  |
| Cc1cc(O)c(=O)c(O)cc1C(=O)c1ccc([N+](=O)[O-])cc1 [Compound 313, 2,7-dihydroxy-4-methyl-5-(4-nitrobenzoyl)cyclohepta-2,4,6-trien-1-one] | 24 (≈ 7.23 µg/mL) | 46 |  |
| Cc1cc(O)c(=O)c(O)cc1C(=O)c1ccco1 [Compound 309, 4-(furan-2-carbonyl)-2,7-dihydroxy-5-methylcyclohepta-2,4,6-trien-1-one] | 24 (≈ 5.91 µg/mL) | 35 |  |
| O=C(Oc1cccccc1=O)c1ccc(Cl)cc1 [Compound 63] | 17 (≈ 4.43 µg/mL) | 100 |  |
| Purpurogallin [Compound 195] |  |  | MIC80 [2, 7]: 50 µM; activity against C. neoformans (in words) [2]: largely ineffective; CC50 [4]: 92 µM |
| Cc1cc(O)c(=O)c(O)cc1C(=O)c1cccs1 [Compound 308, 4-(thiopene-2-carbonyl)-2,7-dihydroxy-5-methylcyclohepta-2,4,6-trien-1-one] | 11 (≈ 2.89 µg/mL) | 24 |  |
| CC(=O)NC(CCc1ccc(Cl)c(Cl)c1)c1cccc(O)c(=O)c1 (stereo not shown) [Compound 55] | 6 (≈ 2.2 µg/mL) | 4.3 | CC50 at 72 h ([3]; CC50, HepDES19, MTS): 4 µM |
| CC(C)c1ccc(O)c(=O)cc1 [Compound 48, γ-thujaplicin] | 8 (≈ 1.31 µg/mL) | 45 |  |
| CC(=O)c1cc(O)c(=O)c(O)cc1C [Compound 110] | 50 (≈ 9.71 µg/mL) | 19 | MIC [2, 5]: ≥ 50 µM |

| Compound | MIC80 [2, 5] [µM] | CC50 at 72 h [3, 6] [µM] | further results |
| --- | --- | --- | --- |
| Cc1ccc(O)c(=O)c(O)c1 [Compound 210] | 15 (≈ 2.28 µg/mL) | 71 | MIC [2, 5]: ≤ 15 µM |
| COc1cc(C)c(C(=O)c2ccccc2)c(C(=O)c2ccccc2)c(O)c1=O [Compound 317, (7-hydroxy-5-methoxy-3-methyl-6-oxocyclohepta-2,4,7-triene-1,2-diyl) bis (phenyl methanone)] | 50 (≈ 18.7 µg/mL) | > 100 | activity against C. neoformans (in words) [2]: little activity; also recorded: no activity |
| O=Nc1ccc(O)c(=O)cc1 [Compound 50, 5-nitrosotropolone] |  |  | MIC80 [2, 7]: 24 µM (≈ 3.63 µg/mL); CC50 [4]: 17.5 µM |
| Cc1cc(O)c(=O)c(O)cc1C(=O)C1CC1 [Compound 310, 4-(cyclopropanecarbonyl)-2,7-dihydroxy-5-methylcyclohepta-2,4,6-trien-1-one] | 11 (≈ 2.42 µg/mL) | 35 |  |
| NCc1cccc(-c2ccc(Cc3cc(=O)n(O)c4ncccc34)cc2)c1 [Compound 153] |  |  | MIC [1]: ~4 µM (≈ 1.43 µg/mL) |
| COC(=O)c1c(C)cc(O)c(=O)c(O)c1C(=O)OC [Compound 106] | 41 (≈ 11 µg/mL) | 24.5 |  |
| Cc1ccc(CSc2cccccc2=O)cc1 [Compound 365] |  |  | MIC [2, 8]: > 50 µM; CC50 at 72 h [3, 9]: > 100 µM |
| Cc1cc(O)c(=O)c(O)cc1C(=O)c1ccccc1O [Compound 311, 4-(2-hydroxybenzoyl)-2,7-dihydroxy-5-methylcyclohepta-2,4,6-trien-1-one] | 15 (≈ 4.08 µg/mL) | 20 |  |
| O=C(Nc1ccc(O)c(=O)cc1)c1ccccc1 [Compound 52] | 50 (≈ 12.1 µg/mL) | > 100 |  |
| Cc1cc(O)c(=O)c(O)cc1C(=O)c1ccccc1 [Compound 111] | 36 (≈ 9.23 µg/mL) | 26.3 |  |
| O=C(Sc1cccccc1=O)c1ccccc1 [Compound 364] |  |  | MIC [2, 8]: 0.2 µM (≈ 0.0485 µg/mL); CC50 at 72 h [3, 9]: 46 µM |
| Cc1cc(O)c(=O)c(O)cc1C(=O)C1CCCCC1 [Compound 120] | 12 (≈ 3.15 µg/mL) | 21.5 |  |
| O=c1cc(-c2ccccc2)c2cccnc2n1O [Compound 154] |  |  | MIC [1]: ~20 µM (≈ 4.76 µg/mL) |
| O=C(Oc1cccccc1=O)c1ccccc1Cl [Compound 282] | 36 (≈ 9.38 µg/mL) |  | CC50 [4]: 96.5 µM |
| O=C(Oc1cccccc1=O)c1ccc([N+](=O)[O-])cc1 [Compound 51, tropolone p-nitrobenzoate] | 24 (≈ 6.51 µg/mL) | > 100 |  |
| O=c1c(O)ccc(-c2ccco2)cc1O [Compound 265, 4-(furan-2-yl)-2,7-dihydroxycyclohepta-2,4,6-trien-1-one] |  |  | MIC [2, 5]: ≤ 15 µM |
| Cc1cc(O)c(=O)c(O)cc1-c1ccccc1 [Compound 113] | 24 (≈ 5.48 µg/mL) | 37.5 |  |
| Cc1ccc(S(=O)(=O)Oc2cccccc2=O)cc1 [Compound 61] | 41 (≈ 11.3 µg/mL) | 30.5 | CC50 at 72 h ([3]; CC50, HepDES19, MTS): 30.5 µM |
| Cc1cc(O)c(=O)c(O)cc1-c1ccc([N+](=O)[O-])cc1 [Compound 112] | 49 (≈ 13.4 µg/mL) | 74 |  |
| O=c1c(O)ccccc1O [Compound 172, 7-Hydroxytropolone] | 24 (≈ 3.31 µg/mL) | 100 | MIC [2, 5]: 24 µM (≈ 3.31 µg/mL); activity against C. neoformans (in words) [2]: little activity |
| Cc1cc(O)c(=O)c(O)cc1C(=O)c1ccc(-c2ccccc2)cc1 [Compound 118] | 18 (≈ 5.98 µg/mL) | 17.5 |  |
| O=c1c(O)ccc(-c2ccccc2)cc1O [Compound 262, 2,7-dihydroxy-4-phenylcyclohepta-2,4,6-trien-1-one] | 18 (≈ 3.86 µg/mL) | 96 |  |
| Cc1cc(O)c(=O)c(O)cc1-c1ccc(Cl)cc1 [Compound 144] | 50 (≈ 13.1 µg/mL) |  |  |
| Cc1cc(O)c(=O)c(O)cc1-c1ccc(C(F)(F)F)cc1 [Compound 145] | 15 (≈ 4.44 µg/mL) | 11 |  |
| Cc1ccc(C(=O)Nc2cccccc2=O)cc1 [Compound 60] | 50 (≈ 12 µg/mL) | > 100 |  |
